Experimental data as given in patent US12599646B2, “Peptide-containing composition for use for treating neoplastic lesions” (CYTOVATION ASA, priority 2020, dated 2026).
Square brackets hold non-standard residues; d marks the D form. Peptide text beside a SMILES is read from it.

Tests used:
neoplastic cells = details: as shown in WO 2011/092347; cited from earlier work
[1] = Saturated solubility of CyPep-1 in liquid excipients; type: physicochemical; details: 25° C.
Experimental: A sample of the saturated supernatant was examined using light microscopy with a magnification of 200-1000× using a LEICA® (Germany) DME light microscope. The saturated supernatant was mounted on a microscope slide and examined immediately using both polarised and non-polarised light for the presence of CyPep-1 crystals. The dilution (Step (vii)) was performed immediately after the centrifugation step. • (vii) Since the solubility of CyPep-1 in these excipients was unknown, an appropriate dilution was made to achieve a concentration of CyPep-1 in sample diluent (deionised water) that was above the limit of quantification of the HPLC method, prior to analysis. For excipients which were saturated following the addition of ca. 20 mg of CyPep-1 the following dilution was performed: • (a) Into a 10 mL volumetric flask ca. 50 mg of the saturated solution was weighed. • (b) The volumetric flask from Step (a) was made to volume with sample diluent (deionised water) and vortex mixed for 30 s. • (c) An aliquot of the diluted sample from Step (b) was transferred to an HPLC vial and analysed by HPLC as described above. • (viii) For excipients which were saturated following the addition of ca. 40 mg of CyPep-1 the dilution was performed as detailed in Step (vii), however a 20 mL volumetric flask was used. Stability Testing—Method

[2] = Short-term stability testing: percentage recovery of CyPep-1 from formulations; details: 40° C., t=2 weeks
Experimental: HPLC was performed using a PHENOMENEX® (USA) KINETEX® C18 5 μm 100 Å 4.6×250 mm column and a PHENOMENEX® SecurityGuard C18 5 μm guard column, as follows:
The optimal extraction method developed was performed as follows: • (i) 150 mg formulation was weighed into a 10 ml volumetric flask. • (ii) The flask was made up to volume with 50:50 v/v water:ethanol. • (iii) The volumetric flask was vortex-mixed for 30 s to disperse the formulation, yielding an extraction solution containing CyPep-1 at a concentration of 150 μg/ml. • (iv) A PTFE magnetic stirrer was added to the volumetric flask from Step (iii) and the contents of the volumetric flask was stirred for 2 h at 500 rpm. • (v) The extraction solution from Step (iv) was transferred to centrifuge tubes and the samples were centrifuged at 16,000×g for 10 min at 25° C. • (vi) The supernatant was filtered using a 0.2 μm PTFE filter.
The obtained, filtered solution was used for HPLC analysis.
The 10 formulations described above which were not discarded were taken into stability testing. Samples of the formulations were stored at 2-8° C., 25° C. and 40° C. After 2 weeks, samples stored at 25° C. and 40° C. were assessed; after 4 weeks and 11 weeks samples stored at 2-8° C. and 25° C. were assessed.
Stability of CyPep-1 in each formulation was determined based on how much CyPep-1 could be recovered at each time point at each temperature. […]

For `CC[C@@H](C)[C@@H](NC(=O)[C@@H](C)NC(=O)[C@@H](CCCCN)NC(=O)[C@@H](C)NC(=O)[C@H](NC(=O)[C@@H](CCCNC(=N)N)NC(=O)[C@@H](CC(C)C)NC(=O)[C@H](NC(=O)[C@@H](CCCCN)NC(=O)CNC(=O)[C@@H](CCCNC(=N)N)NC(=O)[C@@H](CCCNC(=N)N)NC(=O)[C@@H](CCCNC(=N)N)NC(=O)[C@@H](CCC(N)=O)NC(=O)[C@@H](CCCNC(=N)N)NC(=O)[C@@H](CCCNC(=N)N)NC(=O)[C@@H](CCCCN)NC(=O)[C@@H](CCCCN)NC(=O)[C@@H](CCCNC(=N)N)NC(=O)CNC(=O)[C@H](N)Cc1ccc(O)cc1)[C@H](C)O)C(C)C)C(=O)N[C@H](Cc1ccc(O)cc1)C(=O)N[C@H](CCCCN)C(=O)N[C@H](CCCNC(=N)N)C(=O)N[C@H](Cc1ccc(O)cc1)C(=O)N[C@@H](C(=O)N[C@H](CCC(=O)O)C(=O)O)[C@H](C)CC` [CyPep-1] (H-[dY]G[dR][dK][dK][dR][dR][dQ][dR][dR][dR]G[dK][dT][dL][dR][dV][dA][dK][dA][dI][dY][dK][dR][dY][dI][dE]-OH; N-terminus and C-terminus assumed), the “cytotoxicity to neoplastic cells” value (neoplastic cells) is listed as “selectively cytotoxic”, the “saturated solubility of CyPep-1” value ([1]; benzyl alcohol) is listed as “more than 10 % w/w” and the “saturated solubility of CyPep-1” value ([1]; deionised water (pH 4, 5, 6 or 7)) is listed as “more than 10 % w/w”. The “saturated solubility of CyPep-1” value ([1]; ethanol) was “more than 10 % w/w”, the “saturated solubility of CyPep-1” value ([1]; phenoxyethanol) was “more than 10 % w/w” and the “stability of CyPep-1 in cream and ointment formulations” value [2] was “unstable”.
